# Data from US12453708B2, “Aminonaphthoquinone compounds for treatment and/or prevention of fibrosis diseases” (CALGENT BIOTECHNOLOGY CO., LTD., priority 2015, dated 2025).
# Legend:
# Type in all cases: cell-based, human
# [1] = test system: TGF-β-induced CTGF expression in WI-38 cells; experiment: TGF-β-induced CTGF expression in WI-38 cells (Western blot); conditions: WI-38 lung fibroblasts, 0.3, 1, 3 or 10 μM for 30 min before and during 2 h TGF-β (10 ng/mL)
# Description: (§1) FIGS. 1 (A) and (B) show the effect of L056 on TGF-β-induced CTGF expression in WI-38 cells. WI-38 lung fibroblasts were incubated with different concentrations of L056 (0.3, 1, 3 or 10 μM) for 30 min before and during incubation for 2 h with TGF-β (10 ng/mL). […] (A), Western blot plot; (B), Quantitative assay of Western blot. WI-38 cells, a normal human embryonic lung fibroblast cell line, were obtained from American Type Culture Collection (Manassas, VA). Cells were grown in MEM nutrient mixture, containing 10% FCS, 2 mM L-glutamine, 0.1 mM NEAA, 1 mM sodium pyruvate, 50 U/ml penicillin G, and 100 µg/ml streptomycin, in a humidified 37° C. incubator with 5% CO2 Cells were used between passages 18 and 30 for all experiments. After reaching confluence, cells were seeded onto 6-cm dishes for immunoblotting. Western blot analyses were performed as described previously (Chen B C, Chang Y S, Kang J C, Hsu M J, Sheu J R, Chen T L, et al. Peptidoglycan induces nuclear factor-kappaB activation and cyclooxygenase-2 expression via Ras, Raf-1, and ERK in RAW 264.7 macrophages. J Biol Chem 2004; 279:20889-97). […] The immunoreactivity was detected using enhanced chemiluminescence (ECL) following the manufacturer's instructions. Quantitative data were obtained using a computing densitometer with scientific imaging systems (Kodak, Rochester, NY). […]
# [2] = test system: TGF-β-induced fibronectin expression in WI-38 cells; experiment: TGF-β-induced fibronectin expression in WI-38 cells (Western blot, immunofluorescence); conditions: WI-38 lung fibroblasts, 0.3, 1, 3 or 10 μM for 30 min before and during incubation with TGF-β (10 ng/mL)
# Description: as §1, with “FIGS. 6 (A), (B)” for “FIGS. 1 (A)”, “and (C)” for “and (B)”, “TGF-β-induced fibronectin” for “TGF-β-induced CTGF”, “Western blot; (C), Immunofluorescence plot.” for “Western blot.”
# WI-38 lung fibroblasts = experiment: Cell viability test (MTT-assay) in WI-38 cells; conditions: 0.3, 1, 3 or 10 μM for 2 hours
# Description: WI-38 cells, a normal human embryonic lung fibroblast cell line, were obtained from American Type Culture Collection (Manassas, VA). Cells were grown in MEM nutrient mixture, containing 10% FCS, 2 mM L-glutamine, 0.1 mM NEAA, 1 mM sodium pyruvate, 50 U/ml penicillin G, and 100 µg/ml streptomycin, in a humidified 37° C. incubator with 5% CO2 Cells were used between passages 18 and 30 for all experiments. After reaching confluence, cells were seeded onto 6-cm dishes for immunoblotting. WI-38 lung fibroblasts were incubated with different concentrations of MPTOL056 (0.3, 1, 3 or 10 μM) for 2 hours before MTT-assay.
structure (smiles),measurement,setting,value
"O=C(Nc1ccncc1)c1ccc(CNC2=C(Cl)C(=O)c3ccccc3C2=O)cc1 [Example L056, 4-(((3-chloro-1,4-dioxo-1,4-dihydronaphthalen-2-yl)amino)methyl)-N-(pyridin-4-yl)benzamide]",TGF-β-induced CTGF production,[1],significantly inhibited
same,TGF-β-induced fibronectin expression,[2],significantly inhibited
same,cell viability,WI-38 lung fibroblasts,did not affect cell viability
